The assay concerns C57BL/6 mice. Description: rhPBEF challenge in limited ventilator-induced lung injury model (VILIa, 30 ml/kg). Format: in vivo, mouse. On the procedure: The first VILI model was designed to produce limited lung injury (VILIa, tidal volume 30 ml/kg), thus allowing assessment of potential synergy with rhPBEF challenge. Male C57BL/6J B6 mice were anesthetized with ketamine/acepromazine, intubated and administered rhPBEF (20 μg/mouse) via an intratracheal (IT) route ˜30 min before ventilator placement (room air, tidal volume 30 ml/kg, 65 breaths/minute, 0 cm H2O PEEP) for 4 hr as previously described (Nonas et al., 2007; Moitra et al., 2007). Groups included a spontaneous breathing group (SB), a spontaneous breathing group challenged with rhPBEF (SB-rhPBEF), a high tidal ventilation group (VILIa), and a high tidal ventilation group with rhPBEF challenge (VILIa-rhPBEF) (n=4-6 all groups).
BAL fluid recovered as we previously described was used for multiple assays including total BAL protein, and BAL cell differentials (Peng et al., 2004). Tissue albumin content was assessed as previously described (Nonas et al., 2007). Cytokine levels in BAL fluid (IL-1β, IL-6, KC, MIP2, TNF-α) were analyzed by multiplex assays (Bio-Rad, Hercules, Calif., USA). BAL PBEF levels were assayed by a C-terminal ELISA (Phoenix Pharmaceuticals Inc. Belmont, Calif.) and analyzed using the SoftmaxPRO software (Molecular Devices Corp). (See Supplemental Methods).
We utilized two experimental models of ventilator-induce lung injury in these experiments. Our first approach (VILIa) utilized a VILI protocol with a tidal volume of 30 ml/kg designed to produce limited lung injury in order to allow assessment of potential synergism between delivered PBEF and mechanical ventilation-induced lung injury. Male C57BL/6J mice (8-12 wk old, 24.7±2.0 g) were weighed, anesthetized with ketamine/acepromazine, intubated using a 20 gauge catheter (Medex, Inc, Carlsbad, Calif.) and administered recombinant PBEF (20 μg/mouse in 1.5 μl water per gram body weight or vehicle equal volumes of water) via an intratracheal (IT) route ˜30 min before being placed on mechanical ventilation as we have previously described (Peng et al., 2004). Mice were then connected to Harvard Apparatus ventilator (Boston, Mass.) at room air, tidal volume of 30 ml/kg, 65 breaths/minute, and positive expiratory pressure (PEEP) 0 cm H2O for 4 hr. Groups of mice were randomly allocated to either the spontaneous breathing group (SB) (n=4), the spontaneous breathing challenged with IT rhPBEF group (SB-rhPBEF) (n=6), the high tidal ventilation group (VILIa) (n=6), or high tidal ventilation with rhPBEF group (VILIa-rhPBEF) (n=6). Normal saline (0.2 cc) was given via intraperitoneal injection at the beginning and 2 hours later to all ventilated mice and peak inspiratory pressure was monitored continuously. Temperature was maintained with heat blanket to all mice during experiment.
Mice underwent bronchioalveolar lavage (BAL) of both lungs with Hank's balanced salt solution (1 mL/mouse), and the recovered BAL fluid was used for assays as we have previously described (Peng et al., 2004). Total protein was measured using the Bio-Rad DC Protein Assay (Bio-Rad Laboratories, Hercules, Calif.) (Peng et al., 2004). Protein results were expressed as mg/ml to allow for comparison to other studies. Lavage samples were centrifuged at 500×g on a refrigerated micro centrifuge for 20 min. The supernatant was decanted and aliquot for protein assays. The BAL cells were resuspended in Hank's balanced salt solution and counted using a hemacytometer using standard techniques.
Re-suspended BAL cells from lung lavage were centrifuged using a Shandon Cytospin-2 at 600 RPM for 15 min, fixed by air-drying, and stained with Diff-Quik dye for differential counts (Peng et al., 2004). Stained cell slides were evaluated and differentially counted for each individual animal (lymphocyte, neutrophil or a macrophage).
BAL fluid for cytokine measurements was stored at −80° C. until analysis. […]

“Also recorded” adds a separate entry of the source.

As for “rhPBEF: Recombinant human soluble PBEF/visfatin, a 52 kDa protein containing 465 amino acid residues, purchased from PeproTech”, the “BAL IL-1β” value is 53 ± 4 pg/mL, the “BAL IL-6” value stood at 957 ± 103 pg/mL, the “BAL KC” value worked out at 2310 ± 263 pg/mL and the “BAL MIP-2” value stood at 30480 ± 219 pg/mL. In addition, the “BAL TNF-α” value was 985 ± 293 pg/mL. Moreover, where the note is “20 μg rhPBEF”, the “BAL cytospin (400×)” value is “dramatic influx of neutrophils into the alveolar space”. For the same substance, the “histologic assessment of lung tissue (hematoxylin and eosin)” value (intratracheal rhPBEF 30 min prior to mechanical ventilation for 4 hr) was “greater alveolar wall thickening, and neutrophil infiltration into the lung interstitium and alveolar space; also recorded: dramatically augmented”.

(Values after patent US9409983B2, “Methods and compositions involving PBEF inhibitors for lung inflammation conditions and diseases” (The Board of Trustess of the University of Illinois, priority 2009, dated 2016).)
